One experiment has as its target T1, Squalene synthase (Homo sapiens, UniProt P37268).
T1 sequence (P37268 whole entry): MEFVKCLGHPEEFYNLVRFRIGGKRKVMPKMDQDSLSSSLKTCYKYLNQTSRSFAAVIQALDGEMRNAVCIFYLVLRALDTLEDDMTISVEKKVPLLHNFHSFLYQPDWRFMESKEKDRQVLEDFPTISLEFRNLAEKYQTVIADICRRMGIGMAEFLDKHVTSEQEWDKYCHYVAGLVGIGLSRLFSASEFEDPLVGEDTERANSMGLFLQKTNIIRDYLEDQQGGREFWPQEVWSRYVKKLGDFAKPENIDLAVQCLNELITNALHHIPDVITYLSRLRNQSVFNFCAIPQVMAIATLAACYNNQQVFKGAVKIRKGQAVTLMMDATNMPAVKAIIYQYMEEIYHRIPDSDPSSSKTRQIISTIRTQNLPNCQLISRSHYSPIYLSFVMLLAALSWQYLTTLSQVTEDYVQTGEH
The experiment in a line: Inhibitory activity against HepG2 Squalene Synthase (SQS).

Experiment [1] concerns Mus musculus. Description: Inhibition of cholesterol synthesis from [14C]acetate expressed as percent reduction in radioactivity in mice after oral administration of 3 mg/kg. It is filed as functional.
For experiment [2], the system named is Mus musculus. Description: Tested for inhibition of cholesterol synthesis by compound after oral administration at 10 mg/kg in mice. It is filed as functional.
A short description of experiment [3]: Inhibition of cholesterol synthesis by compound after oral administration at of 10-100 mg/kg/day in marmoset. Type of experiment: functional.

A value given as a limit tells only on which side of the number the result lay.

One may read the IC50 as the midpoint of a concentration-inhibition curve. At Squalene synthase, `C[C@@H](NC(=O)C[C@H](CC(=O)O)C(=O)O)[C@H](Cc1ccc(Cl)c(Cl)c1)c1ccc(-c2ccccc2)c(F)c1` gave an IC50 of 16 nM. Still for that read-out and setting: the result for `C[C@H](NC(=O)CC(CC(=O)O)C(=O)O)[C@@H](Cc1ccc(Cl)c(Cl)c1)c1ccc(-c2ccccc2)c(F)c1` (some centres not stated) reads greater than 300 nM. Same read-out and setting: the result for `C[C@@H](NC(=O)C[C@H](CC(=O)O)C(=O)O)[C@@H](Cc1ccc(Cl)c(Cl)c1)c1ccc(-c2ccccc2)c(F)c1` reads 19 nM. The same measure, in the same setting: the result for `C[C@H](NC(=O)C[C@@H](CC(=O)O)C(=O)O)[C@@H](Cc1ccc(Cl)cc1)c1ccc(-c2ccccc2)cc1` reads 3.2 nM; that for `CC(NC(=O)CC(CC(=O)O)C(=O)O)C(Cc1ccc(Cl)cc1)c1ccc(Cl)cc1` (configuration not stated), 660 nM.

`C[C@@H](NC(=O)CC(CC(=O)O)C(=O)O)[C@H](Cc1ccc(Cl)c(Cl)c1)c1ccc(-c2ccccc2)c(F)c1` (some centres not stated) gave an IC50 against Squalene synthase greater than 300 nM. On the same count and under the same terms, the result for `C[C@H](NC(=O)C[C@@H](CC(=O)O)C(=O)O)[C@@H](Cc1ccc(Cl)c(Cl)c1)c1ccc(-c2ccccc2)cc1` reads 1.2 nM. In the case of `C[C@H](NC(=O)C[C@@H](CC(=O)O)C(=O)O)[C@@H](Cc1ccc(Cl)c(Cl)c1)c1ccc(-c2ccccc2)c(F)c1`, the Reduction in the experiment with Mus musculus [1] is 84%. Moreover, at Squalene synthase, the 50% inhibitory concentration (IC50) is 0.52 nM.

Turning to `C[C@H](NC(=O)CC(CC(=O)O)C(=O)O)[C@@H](Cc1ccc(Cl)c(Cl)c1)c1ccc(-c2ccccc2)c(F)c1` (single isomer, unassigned), the IC50 against Squalene synthase came out at 0.73 nM. The term inhibition in vivo denotes the drop in the measured response relative to a control, in per cent. A lower inhibition in vivo goes with little suppression. As to `C=C(CCC12OC(C(=O)O)C(O)(C(=O)O)C(C(=O)O)(O1)[C@H](OC(=O)/C=C/[C@@H](C)C[C@@H](C)CC)[C@H]2O)[C@@H](OC(C)=O)[C@H](C)Cc1ccccc1` (some centres not stated) [ZARAGOZIC ACID A], in the experiment on Mus musculus [2], at 10 mg/kg the inhibition in vivo was 38%. Further, the Reduction in experiment [3] is reported as 75%.

The values above are taken from ChEMBL document CHEMBL1151488, “Synthesis and biological activity of J-104,118, a novel, potent inhibitor of squalene synthase” (Bioorg Med Chem Lett, 1995).
